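Interpolation was linear, between the two tested concentrations surrounding the appropriate level; five concentrations were tested over 48 hours in 96-well plates. GI50: concentration for 50% inhibition of growth.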 Activity calls are given as the source filed them. Rule as the data show it: active = GI50 up to about 1.1 µM and inactive = higher.
Columns and labels:
Test in all cases: inhibition of tumour cell growth, NCI panel, 48 h
786-0 = system: 786-0
A498 = system: A498
ACHN = system: ACHN
BT-549 = system: BT-549
DLD-1 = system: DLD-1
HCT-15 = system: HCT-15
HL-60 = system: HL-60
HOP-62 = system: HOP-62
IGROV-1 = system: IGROV-1
K562 = system: K562
KM12 = system: KM12
M14 = system: M14
MDA-MB-231 = system: MDA-MB-231
NCI-H460 = system: NCI-H460
SF-268 = system: SF-268
SK-MEL-5 = system: SK-MEL-5
SNB-19 = system: SNB-19
SNB-75 = system: SNB-75
TK-10 = system: TK-10
UACC-257 = system: UACC-257

COC1N(C2CC(O)C(CO)O2)C(=O)NC(=O)C1(F)Br (stereo not given)
GI50 (786-0): 5.01 µM (inactive)
GI50 (A498): 9.29 µM (inactive)
GI50 (ACHN): 1.88 µM (inactive)
GI50 (BT-549): 25 µM (inactive)
GI50 (DLD-1): 16.5 µM (inactive)
GI50 (HCT-15): 13.4 µM
GI50 (HL-60): > 50 µM (inactive)
GI50 (HOP-62): 1.45 µM (inactive)
GI50 (IGROV-1): 14.1 µM (inactive)
GI50 (K562): 36.8 µM (inactive)
GI50 (KM12): 21.6 µM (inactive)
GI50 (M14): 15 µM (inactive)
GI50 (MDA-MB-231): > 57.1 µM (inactive)
GI50 (NCI-H460): 0.346 µM (active)
GI50 (SF-268): 1.2 µM (inactive)
GI50 (SK-MEL-5): 7.66 µM (inactive)
GI50 (SNB-19): 41.2 µM (inactive)
GI50 (SNB-75): 36.1 µM (inactive)
GI50 (TK-10): > 100 µM (inactive)
GI50 (UACC-257): 70.5 µM (inactive)

O=C1C=C(NCCc2ccccc2)c2ccccc2C1=O
GI50 (786-0): 3.64 µM (inactive)
GI50 (A498): 3.71 µM (inactive)
GI50 (ACHN): 2.82 µM (inactive)
GI50 (BT-549): 2.23 µM (inactive)
GI50 (DLD-1): 6.03 µM (inactive)
GI50 (HCT-15): 1.67 µM
GI50 (HL-60): 1.69 µM (inactive)
GI50 (HOP-62): 2.55 µM (inactive)
GI50 (IGROV-1): 7.28 µM (inactive)
GI50 (K562): 4.34 µM (inactive)
GI50 (KM12): 2.63 µM (inactive)
GI50 (M14): 1.59 µM (inactive)
GI50 (MDA-MB-231): 5.86 µM (inactive)
GI50 (NCI-H460): 1.57 µM (inactive)
GI50 (SF-268): 7.24 µM (inactive)
GI50 (SK-MEL-5): 1.09 µM (active)
GI50 (SNB-19): 2.81 µM (inactive)
GI50 (SNB-75): 1.69 µM (inactive)
GI50 (TK-10): 14.2 µM (inactive)
GI50 (UACC-257): 1.53 µM (inactive)

C=CCc1cc(-c2cc(CC=C)c(O)c(CN(CC)CC)c2)cc(CN(CC)CC)c1O
GI50 (786-0): 30.5 µM (inactive)
GI50 (A498): > 100 µM (inactive)
GI50 (ACHN): 80 µM (inactive)
GI50 (BT-549): > 49.2 µM (inactive)
GI50 (DLD-1): 70.1 µM (inactive)
GI50 (HCT-15): 15.8 µM
GI50 (HL-60): 35.4 µM (inactive)
GI50 (HOP-62): 47.4 µM (inactive)
GI50 (IGROV-1): > 67.6 µM (inactive)
GI50 (K562): 26.1 µM (inactive)
GI50 (KM12): 43.3 µM (inactive)
GI50 (M14): 8.93 µM (inactive)
GI50 (MDA-MB-231): 26 µM (inactive)
GI50 (NCI-H460): 21.3 µM (inactive)
GI50 (SF-268): 76 µM (inactive)
GI50 (SK-MEL-5): 11.1 µM (inactive)
GI50 (SNB-19): > 97.3 µM (inactive)
GI50 (SNB-75): > 100 µM (inactive)
GI50 (TK-10): 62.7 µM (inactive)
GI50 (UACC-257): 23.6 µM (inactive)
